From PMC5367682, “Fragment library screening identifies hits that bind to the non-catalytic surface of Pseudomonas aeruginosa DsbA1” (PLoS ONE, 2017)

molecular target: T1, PaDsbA1 (Pseudomonas aeruginosa, UniProt P0C2B2); assay: […]-HSQC NMR titration, CSP fitted to one-site model; type: binding
T1 construct: gene dsbA; N-terminal His6 tag cut with TEV; E. coli BL21(DE3) Gold; 15N-labelled for NMR, oxidized; NMR structure residues 3-192
T1 sequence (P0C2B2 22-211): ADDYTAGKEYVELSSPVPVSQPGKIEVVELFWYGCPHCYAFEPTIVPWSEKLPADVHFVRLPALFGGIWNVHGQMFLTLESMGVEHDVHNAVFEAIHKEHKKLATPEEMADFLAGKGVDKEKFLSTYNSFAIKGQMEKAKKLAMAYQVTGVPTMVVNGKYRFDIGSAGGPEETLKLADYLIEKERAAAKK

SMILES | Kd [µM]
Cc1ccccc1CSc1nncn1N [compound 1, Fragment 1] | 900
Cc1cc(C(=O)Nc2cccc(O)c2)c(C)o1 [compound 2, Fragment 2] | 1600 ± 200
Oc1nc2ccccc2s1 [compound 3, Fragment 3] | 2100 ± 300
Nc1ccc(-c2nc3ccccc3[nH]2)cc1 [compound 4, Fragment 4] | 2500 ± 400
NNC(=O)c1cc(C2CC2)n[nH]1 [compound 5, Fragment 5] | 2700 ± 700
COc1ccc(-c2nc(N)sc2C)cc1 [compound 6, Fragment 6] | 3900 ± 200
CNCc1ccc(-c2cccc(Cl)c2)o1 [compound 7, Fragment 7] | 4300 ± 1000
Nc1cccc(C(=O)Nc2ccccc2Cl)c1 [compound 8, Fragment 8] | 4400 ± 5000

molecular target: T2, EcDsbA (Escherichia coli, UniProt P0AEG4); assay: […]-HSQC NMR after STD NMR; type: binding
T2 construct: gene dsbA; 15N-labelled for HSQC
T2 sequence (P0AEG4 20-208): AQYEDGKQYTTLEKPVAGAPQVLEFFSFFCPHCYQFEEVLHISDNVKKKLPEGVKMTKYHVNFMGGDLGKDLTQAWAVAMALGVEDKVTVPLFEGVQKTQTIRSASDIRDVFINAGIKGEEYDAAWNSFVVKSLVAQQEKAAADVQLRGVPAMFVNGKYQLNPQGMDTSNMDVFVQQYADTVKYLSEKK

SMILES | Kd [µM]
COc1ccc(-c2nc(N)sc2C)cc1 [compound 6, Fragment 6] | > 5000
